Test results as given in ChEMBL document CHEMBL4825691, “Antimicrobial, modulatory, and antibiofilm activity of tt-farnesol on bacterial and fungal strains of importance to human health” (2021).
In brackets after ≈: the same amount, converted by molar mass.

Columns and labels:
Type in all cases: functional
Escherichia coli [1] = test: Antibacterial activity against Escherichia coli ATCC 25922 assessed as inhibition of bacterial growth incubated for 24 hrs by microdilution assay
Streptococcus sobrinus [2] = test: Antibiofilm activity against drug-resistant Streptococcus sobrinus ATCC 27351 assessed as inhibition of biofilm formation incubated for 24 hrs by crystal violet staining based microtiter plate method
Enterococcus faecalis [3] = test: Antibiofilm activity against drug-resistant Enterococcus faecalis ATCC 51299 assessed as inhibition of biofilm formation incubated for 24 hrs by crystal violet staining based microtiter plate method
Enterococcus durans [4] = test: Antimicrobial activity against Enterococcus durans BIO 0114 assessed assessed as reduction in bacterial growth at 1/4 times of drug MIC in the presence of Teicoplanin by microdilution method
[5] = test system: Staphylococcus epidermidis; test: Bactericidal activity against Staphylococcus epidermidis ATCC 12228 assessed as bacterial killing incubated for 24 hrs by microdilution assay
[6] = test system: Staphylococcus epidermidis; test: Antibacterial activity against Staphylococcus epidermidis ATCC 12228 assessed as inhibition of bacterial growth incubated for 24 hrs by microdilution assay
Staphylococcus aureus [7] = test: Antibiofilm activity against drug-resistant Staphylococcus aureus ATCC 43300 assessed as inhibition of biofilm formation incubated for 24 hrs by crystal violet staining based microtiter plate method
Staphylococcus aureus [8] = test: Antimicrobial activity against Staphylococcus aureus ATCC 29213 assessed assessed as reduction in bacterial growth at 1/8 times of drug MIC in the presence of vancomycin by microdilution method
Salmonella typhimurium = test: Antibacterial activity against Salmonella enterica subsp. enterica serovar Typhimurium ATCC 14028 assessed as inhibition of bacterial growth incubated for 24 hrs by microdilution assay
Escherichia coli [9] = test: Antibacterial activity against Escherichia coli STEC 2C1 assessed as inhibition of bacterial growth incubated for 24 hrs by microdilution assay
[10] = test system: Staphylococcus epidermidis; test: Antibacterial activity against Staphylococcus epidermidis 70 D assessed as inhibition of bacterial growth incubated for 24 hrs by microdilution assay
Streptococcus agalactiae [11] = test: Antimicrobial activity against Streptococcus agalactiae ATCC 13813 assessed assessed as reduction in bacterial growth at 1/4 times of drug MIC in the presence of Oxacillin by microdilution method
Streptococcus sobrinus [12] = test: Ratio of MBC to MIC against Streptococcus sobrinus ATCC 27351
Escherichia coli [13] = test: Antibacterial activity against Escherichia coli ATCC 35218 assessed as inhibition of bacterial growth incubated for 24 hrs by microdilution assay
Pseudomonas aeruginosa = test: Antibacterial activity against Pseudomonas aeruginosa ATCC 27853 assessed as inhibition of bacterial growth incubated for 24 hrs by microdilution assay
Streptococcus pyogenes [14] = test: Antimicrobial activity against Streptococcus pyogenes ATCC 19615 assessed assessed as reduction in bacterial growth at 1/4 times of drug MIC in the presence of Ampicillin by microdilution method
Acinetobacter baumannii = test: Antibacterial activity against Acinetobacter baumannii ATCC 19606 assessed as inhibition of bacterial growth incubated for 24 hrs by microdilution assay; conditions: ATCC 19606 = CIP 70.34 = JCM 6841
Streptococcus agalactiae [15] = test: Antimicrobial activity against Streptococcus agalactiae ATCC 13813 assessed assessed as reduction in bacterial growth at 1/8 times of drug MIC in the presence of Oxacillin by microdilution method
Enterococcus faecalis [16] = test: Antibacterial activity against Enterococcus faecalis ATCC 51299 assessed as inhibition of bacterial growth incubated for 24 hrs by microdilution assay
Enterococcus durans [17] = test: Antimicrobial activity against Enterococcus durans BIO 0114 assessed assessed as reduction in bacterial growth at 1/8 times of drug MIC in the presence of Teicoplanin by microdilution method
Staphylococcus aureus [18] = test: Antibacterial activity against Staphylococcus aureus ATCC 29213 assessed as inhibition of bacterial growth incubated for 24 hrs by microdilution assay
[19] = test system: Staphylococcus epidermidis; test: Antimicrobial activity against Staphylococcus epidermidis 70 D assessed assessed as reduction in bacterial growth at 1/4 times of drug MIC in the presence of vancomycin by microdilution method
Enterococcus durans [20] = test: Antibiofilm activity against drug-resistant Enterococcus durans BIO01 assessed as inhibition of biofilm formation incubated for 24 hrs by crystal violet staining based microtiter plate method
Streptococcus mutans [21] = test: Antibiofilm activity against drug-resistant Streptococcus mutans ATCC 25175 assessed as inhibition of biofilm formation incubated for 24 hrs by crystal violet staining based microtiter plate method
Streptococcus pyogenes [22] = test: Bactericidal activity against Streptococcus pyogenes ATCC 19615 assessed as bacterial killing incubated for 24 hrs by microdilution assay
Streptococcus pyogenes [23] = test: Antibacterial activity against Streptococcus pyogenes ATCC 19615 assessed as inhibition of bacterial growth incubated for 24 hrs by microdilution assay
Streptococcus mutans [24] = test: Antimicrobial activity against Streptococcus mutans ATCC 25175 assessed assessed as reduction in bacterial growth at 1/8 times of drug MIC in the presence of Ampicillin by microdilution method
Streptococcus pyogenes [25] = test: Ratio of MBC to MIC against Streptococcus pyogenes ATCC 19615
[26] = test system: Staphylococcus epidermidis; test: Bactericidal activity against Staphylococcus epidermidis 70 D assessed as bacterial killing incubated for 24 hrs by microdilution assay
Streptococcus agalactiae [27] = test: Ratio of MBC to MIC against Streptococcus agalactiae ATCC 13813
Staphylococcus aureus [28] = test: Bactericidal activity against Staphylococcus aureus MED 55 assessed as bacterial killing incubated for 24 hrs by microdilution assay
Staphylococcus aureus [29] = test: Antimicrobial activity against Staphylococcus aureus MED 55 assessed assessed as reduction in bacterial growth at 1/8 times of drug MIC in the presence of vancomycin by microdilution method
Proteus mirabilis = test: Antibacterial activity against Proteus mirabilis ATCC 25933 assessed as inhibition of bacterial growth incubated for 24 hrs by microdilution assay
Staphylococcus aureus [30] = test: Antibacterial activity against Staphylococcus aureus MED 55 assessed as inhibition of bacterial growth incubated for 24 hrs by microdilution assay
Streptococcus agalactiae [31] = test: Antibacterial activity against Streptococcus agalactiae ATCC 13813 assessed as inhibition of bacterial growth incubated for 24 hrs by microdilution assay
[32] = test system: Staphylococcus epidermidis; test: Antibiofilm activity against drug-resistant Staphylococcus epidermidis 70 D assessed as inhibition of biofilm formation incubated for 24 hrs by crystal violet staining based microtiter plate method
Escherichia coli [33] = test: Antibacterial activity against Escherichia coli EAEC I 4913 assessed as inhibition of bacterial growth incubated for 24 hrs by microdilution assay
[34] = test system: Staphylococcus epidermidis; test: Antimicrobial activity against Staphylococcus epidermidis ATCC 12228 assessed assessed as reduction in bacterial growth at 1/4 times of drug MIC in the presence of Oxacillin by microdilution method
Streptococcus mutans [35] = test: Bactericidal activity against Streptococcus mutans ATCC 25175 assessed as bacterial killing incubated for 24 hrs by microdilution assay
Shigella flexneri = test: Antibacterial activity against Shigella flexneri CCCD S006 assessed as inhibition of bacterial growth incubated for 24 hrs by microdilution assay

For `CC(C)=CCC/C(C)=C/CC/C(C)=C/CO` [FARNESOL], which MIC (Escherichia coli [1]) is on record?
The MIC was greater than 1020 µg/mL.

What about the MIC (Streptococcus sobrinus [2]) of the same compound?
Its MIC is 8 µg/mL (≈ 36 µM).

What about the MIC (Enterococcus faecalis [3]) of the same compound?
The MIC was 128 µg/mL (≈ 576 µM).

And the MIC (Enterococcus durans [4])?
Its MIC is 1 µg/mL.

And the MBC [5]?
The MBC was greater than 128 µg/mL.

What about the MIC [6] of the same compound?
Its MIC is 32 µg/mL (≈ 144 µM).

What about the MIC (Staphylococcus aureus [7]) of the same compound?
The MIC was 32 µg/mL (≈ 144 µM).

And the MIC (Staphylococcus aureus [8])?
Its MIC is 2 µg/mL.

What about the MIC (Salmonella typhimurium) of the same compound?
Its MIC is greater than 1020 µg/mL.

What about the MIC (Escherichia coli [9]) of the same compound?
Its MIC is greater than 1020 µg/mL.

And the MIC [10]?
The MIC was 64 µg/mL (≈ 288 µM).

And the MIC (Streptococcus agalactiae [11])?
Its MIC is 0.25 µg/mL.

And the Ratio (Streptococcus sobrinus [12])?
The Ratio was 2.

What about the MIC (Escherichia coli [13]) of the same compound?
Its MIC is greater than 1020 µg/mL.

What about the MIC (Pseudomonas aeruginosa) of the same compound?
The MIC was greater than 1020 µg/mL.

What about the MIC (Streptococcus pyogenes [14]) of the same compound?
The MIC was 0.063 µg/mL.

What about the MIC (Acinetobacter baumannii) of the same compound?
The MIC was greater than 1020 µg/mL.

What about the MIC (Streptococcus agalactiae [15]) of the same compound?
The MIC was 0.25 µg/mL.

What about the MIC (Enterococcus faecalis [16]) of the same compound?
Its MIC is 128 µg/mL (≈ 576 µM).

And the MIC (Enterococcus durans [17])?
The MIC was 1 µg/mL.

And the MIC (Staphylococcus aureus [18])?
Its MIC is greater than 1020 µg/mL.

What about the MIC [19] of the same compound?
Its MIC is 2 µg/mL.

What about the MIC (Enterococcus durans [20]) of the same compound?
The MIC was 64 µg/mL (≈ 288 µM).

And the MIC (Streptococcus mutans [21])?
Its MIC is 128 µg/mL (≈ 576 µM).

What about the MBC (Streptococcus pyogenes [22]) of the same compound?
Its MBC is 64 µg/mL (≈ 288 µM).

What about the MIC (Streptococcus pyogenes [23]) of the same compound?
The MIC was 16 µg/mL (≈ 72 µM).

And the MIC (Streptococcus mutans [24])?
Its MIC is 0.5 µg/mL.

And the Ratio (Streptococcus pyogenes [25])?
The Ratio was 4.

What about the MBC [26] of the same compound?
Its MBC is 128 µg/mL (≈ 576 µM).

And the Ratio (Streptococcus agalactiae [27])?
Its Ratio is 2.

And the MBC (Staphylococcus aureus [28])?
The MBC was 128 µg/mL (≈ 576 µM).

What about the MIC (Staphylococcus aureus [29]) of the same compound?
The MIC was 2 µg/mL.

What about the MIC (Proteus mirabilis) of the same compound?
Its MIC is greater than 1020 µg/mL.

What about the MIC (Staphylococcus aureus [30]) of the same compound?
The MIC was 64 µg/mL (≈ 288 µM).

And the MIC (Streptococcus agalactiae [31])?
Its MIC is 16 µg/mL (≈ 72 µM).

What about the MIC [32] of the same compound?
The MIC was 64 µg/mL (≈ 288 µM).

And the MIC (Escherichia coli [33])?
Its MIC is greater than 1020 µg/mL.

What about the MIC [34] of the same compound?
Its MIC is 0.25 µg/mL.

And the MBC (Streptococcus mutans [35])?
Its MBC is greater than 512 µg/mL.

And the MIC (Shigella flexneri)?
Its MIC is greater than 1020 µg/mL.
